In patent publication US5843983A, “Diphenylethane compounds containing a saturated heterocyclic group, their preparation, and their therapeutic use” (Sankyo Company, Limited, priority 1996, dated 1998):
pIC50: −log10 of the molar value. Counter-ions that a name gives are not always drawn.

Key:
[1] = tested on: smooth muscle contraction; assay: Vasoconstriction experiment (serotonin-induced contraction of tail artery helical strip); type: cell-based, Male SD rats; conditions: rat tail artery strip, 3×10^-6 M serotonin, Tyrode's solution, 37° C.; read-out: IC50 (concentration required to reduce the tension to 50%)
Experimental: Vasoconstriction experiment
Effects on smooth muscle contraction were examined by the method of Van Neuten et al. [J. Pharmacol. Exp. Ther., 218, 217-230, (1981)]. Male SD rats, each weighing approximately 500 g, were sacrificed by exsanguination, and the tail artery was excised from each animal. Adherent tissues were removed from the artery for preparation of a helical strip of dimensions about 2×20 mm. The strip was suspended in an organ bath kept at 37° C. and containing 10 ml of Tyrode's solution saturated with a mixed gas (95% O2 /5% CO2) and equilibrated for 1 hour before used in the experiment. An initial tension of 0.5 g was loaded on the helical strip, and changes in tension were recorded in an isometric manner via a transducer. 3×10^-6 M of serotonin was added to the bath as a vasoconstriction inducer, and, after stabilisation of the contractile response of the specimen, a test compound was added to the bath so as to increase the level of test compound in the bath progressively, whilst monitoring the tension in the helical strip. 10^-4 M of papaverine was then added. On the assumption that the tension before the addition of each test compound was 100% and that the tension 5 minutes after the addition of papaverine was 0%, the concentration of each test compound required to reduce the tension to 50% (IC50) was calculated from the least square regression line.

[2] = molecular target: serotonin receptors; assay: Receptor-binding experiment; parameters: species or system Male Wistar rats; conditions: rat cerebral cortex membrane, ^3 H-ligand, 30° C., 1 hour; read-out: IC50 (concentration required to inhibit the binding by 50%)
Experimental: Receptor-binding experiment
The method of Leysen et al. [Mol. Pharmacol., 21, 301-314, (1982)] was employed. Male Wistar rats (body weight 280-320 g) were used in this experiment. The head of each animal was severed, and the cerebral cortex and corpus striatum were excised. These organs were frozen on dry ice and stored at -80° C. until used. Binding to serotonin receptors was examined using the cerebral cortex. To prepare a membrane suspension, the frozen brain tissue was homogenised with 50 mM Tris-HCl buffer (pH 7.7) using Polytron PT-20, and the homogenate was centrifuged at 49,000×gfor 10 minutes. The resulting pellet was suspending in a Tris buffer, centrifuged, and resuspended in Tris buffer. The content of protein in the membrane suspension thus prepared was determined, and adjusted to 0.57 mg/protein/ml with Tris buffer. The membrane suspension was stored at -80° C.
The receptor-binding reaction was started by adding 440 μl of the membrane suspension to a test tube containing 50 μl of ^3 H-ligand and 10 μl of each test compound (dissolved in dimethyl sulfoxide). After incubation at 30° C. for 1 hour, the reaction was terminated by filtration under reduced pressure using a Whatman GF/B glass filter. The filter was washed with ice-cooled Tris buffer (4 ml×2 times). The filter was then treated with ACS-II, and its radioactivity was determined with a liquid scintillation counter. Non-specific binding was determined in the presence of 20 μM atropine. The percent inhibition of receptorbinding was determined from the percent binding in the presence of each test compound. The concentration of each test compound required to inhibit the binding by 50% (IC50) was calculated from the least square regression line.

[3] = molecular target: T1, squalene synthase (Rattus norvegicus, UniProt Q02769); assay: Squalene synthase inhibitory activity; type: biochemical; conditions: rat liver microsome, 10 μM [4-^14 C]-FPP, pH 7.5, 37° C., 20 minutes; read-out: IC50 (50% inhibitory concentration)
T1 construct: The reaction was started by the addition of rat liver microsome suspension; from tissue; host or cells: rat liver microsomes
T1 sequence (Q02769 1-416): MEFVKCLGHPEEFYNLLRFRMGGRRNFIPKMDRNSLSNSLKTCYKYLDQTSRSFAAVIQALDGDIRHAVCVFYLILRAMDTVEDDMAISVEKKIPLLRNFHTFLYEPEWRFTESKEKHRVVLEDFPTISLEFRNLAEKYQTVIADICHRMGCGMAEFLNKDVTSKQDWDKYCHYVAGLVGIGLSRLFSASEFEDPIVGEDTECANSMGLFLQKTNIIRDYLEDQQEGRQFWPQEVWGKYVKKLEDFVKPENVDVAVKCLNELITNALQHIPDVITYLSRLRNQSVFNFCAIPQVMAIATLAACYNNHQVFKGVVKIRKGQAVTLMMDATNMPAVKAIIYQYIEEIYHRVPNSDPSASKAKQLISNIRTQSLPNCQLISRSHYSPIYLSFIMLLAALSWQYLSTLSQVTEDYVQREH
Experimental: Squalene synthase inhibitory activity Squalene synthase inhibitory activity was determined by the method described in U.S. Pat. […] Anal. Biochem. 203, 310 (1992). […] The reaction was started by the addition of rat liver microsome suspension. The reaction solution was then incubated in a thermostat at 37° C. for 20 minutes, after which the reaction was terminated by the addition of 100 μl of a 1:1 by volume mixture of 40% KOH (aqueous potassium hydroxide) and 95% EtOH (aqueous ethanol). The reaction solution thus treated was further heated at 65° C. for 30 minutes, and then cooled. Squalene was extracted with 2 ml of hexane. One milliliter of the resulting hexane layer was mixed with 10 ml of scintillator, and radioactivity was determined using a liquid scintillation counter. The inhibitory activity of each test compound for the enzyme was determined by co-incubation of the sample containing the test compound with the enzyme sample and substrate in the reaction solution.

pIC50 [1] | pIC50 [2] | pIC50 [3] | SMILES
8.72 | 9.00 | – | COc1cccc(CCc2cc(F)ccc2OCC[C@@H]2C[C@@H](O)CN2C)c1 [Example 1, (2R,4R)-2-[2-{4-Fluoro-2-[2-(3-methoxyphenyl)ethyl]phenoxy}ethyl]-4-hydroxy-1-methylpyrrolidine hydrochloride]
8.70 | 9.10 | – | CN1C[C@H](O)C[C@H]1CCOc1ccc(F)cc1CCc1ccc(F)cc1 [Example 2, (2R,4R)-2-[2-{4-Fluoro-2-[2-(4-fluorophenyl)ethyl]phenoxy}ethyl]-4-hydroxy-1-methylpyrrolidine hydrochloride]
8.64 | 9.19 | 5.80 | COc1cc(CCc2cc(F)ccc2OCC[C@@H]2C[C@@H](O)CN2C)ccc1F [Example 4, (2R,4R)-2-[2-{4-Fluoro-2-[2-(4-fluoro-3-methoxyphenyl)ethyl]phenoxy}ethyl]-4-hydroxy-1-methylpyrrolidine hydrochloride]
– | – | 6.13 | O[C@H]1CN[C@H](CCOc2ccc(F)cc2CCc2ccccc2)C1 [Example 5, (2R,4R)-2-{2-[4-Fluoro-2-(2-phenylethyl)phenoxy]ethyl}-4-hydroxypyrrolidinehydrochloride]
8.66 | 8.47 | 5.96 | CN1C[C@H](O)C[C@H]1CCOc1ccc(F)cc1CCc1ccccc1 [Example 6, (2R,4R)-2-{2-[4-Fluoro-2-(2-phenylethyl)phenoxy]ethyl}-4-hydroxy-1-methylpyrrolidine hydrochloride]
8.59 | 9.12 | – | CN1C[C@H](O)C[C@H]1CCOc1ccc(F)cc1CCc1ccc(F)c(F)c1 [Example 7, (2R,4R)-2-[2-{2-[2-(3,4-Difluorophenyl)ethyl]-4-fluorophenoxy}ethyl]-4-hydroxy-1-methylpyrrolidine hydrochloride]
– | – | 5.82 | Cc1ccc(OCC[C@@H]2C[C@@H](O)CN2C)c(CCc2ccccc2)c1 [Example 12, (2R,4R)-4-Hydroxy-1-methyl-2-{2-[4-methyl-2-(2-phenylethyl)phenoxy]ethyl}pyrrolidine hydrochloride]
